# According to publication PMC9329436, “Optimization of the 4-anilinoquin(az)oline scaffold as epidermal growth factor receptor (EGFR) inhibitors for chordoma utilizing a toxicology profiling assay platform” (Scientific Reports, 2022):
# Where two headings read alike, the source gives them in different places.
# What was measured:
# Assay type in all cases: biochemical
# [1] = target: 320 wild-type protein kinases (Homo sapiens, UniProt Q00534); conditions: singlicate
# Excerpt: (§1) Table S4. Profiling of two compounds at two concentrations against 320 wild-type protein kinases; singlicate measurement; Residual activities (% of control).
# [2] = target: 320 wild-type protein kinases (Homo sapiens, UniProt Q13627); conditions: DYRK1A, singlicate
# Excerpt: as §1
# [3] = target: T1, 320 wild-type protein kinases (Homo sapiens, UniProt P30530); conditions: AXL, singlicate
# T1 sequence (P30530 26-894): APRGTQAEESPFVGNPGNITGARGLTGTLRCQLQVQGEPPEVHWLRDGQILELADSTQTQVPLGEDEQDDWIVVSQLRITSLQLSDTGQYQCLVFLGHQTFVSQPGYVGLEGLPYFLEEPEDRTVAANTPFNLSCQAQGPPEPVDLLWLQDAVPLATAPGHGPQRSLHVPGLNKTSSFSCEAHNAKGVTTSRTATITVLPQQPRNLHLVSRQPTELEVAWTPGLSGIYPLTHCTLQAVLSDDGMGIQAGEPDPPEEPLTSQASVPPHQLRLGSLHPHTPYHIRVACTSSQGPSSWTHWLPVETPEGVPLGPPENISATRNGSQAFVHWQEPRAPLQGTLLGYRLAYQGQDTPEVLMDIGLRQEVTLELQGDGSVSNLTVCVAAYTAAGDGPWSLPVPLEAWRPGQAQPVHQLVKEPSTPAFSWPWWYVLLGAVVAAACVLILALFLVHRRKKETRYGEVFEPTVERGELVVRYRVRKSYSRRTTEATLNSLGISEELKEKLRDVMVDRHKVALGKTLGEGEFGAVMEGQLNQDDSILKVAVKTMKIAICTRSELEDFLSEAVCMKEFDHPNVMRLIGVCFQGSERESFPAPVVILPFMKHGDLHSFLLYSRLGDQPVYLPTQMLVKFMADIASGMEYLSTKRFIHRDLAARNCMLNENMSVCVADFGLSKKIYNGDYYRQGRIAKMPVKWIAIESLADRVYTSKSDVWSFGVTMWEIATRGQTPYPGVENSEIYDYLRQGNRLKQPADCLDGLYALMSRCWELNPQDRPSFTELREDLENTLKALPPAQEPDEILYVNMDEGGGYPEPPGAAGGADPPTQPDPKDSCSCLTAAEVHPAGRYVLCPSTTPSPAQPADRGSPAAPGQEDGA
# Excerpt: as §1
# [4] = target: 320 wild-type protein kinases (Homo sapiens, UniProt P22455); conditions: singlicate
# Chain of 320 wild-type protein kinases (Homo sapiens, UniProt P22455) (P22455 22-802): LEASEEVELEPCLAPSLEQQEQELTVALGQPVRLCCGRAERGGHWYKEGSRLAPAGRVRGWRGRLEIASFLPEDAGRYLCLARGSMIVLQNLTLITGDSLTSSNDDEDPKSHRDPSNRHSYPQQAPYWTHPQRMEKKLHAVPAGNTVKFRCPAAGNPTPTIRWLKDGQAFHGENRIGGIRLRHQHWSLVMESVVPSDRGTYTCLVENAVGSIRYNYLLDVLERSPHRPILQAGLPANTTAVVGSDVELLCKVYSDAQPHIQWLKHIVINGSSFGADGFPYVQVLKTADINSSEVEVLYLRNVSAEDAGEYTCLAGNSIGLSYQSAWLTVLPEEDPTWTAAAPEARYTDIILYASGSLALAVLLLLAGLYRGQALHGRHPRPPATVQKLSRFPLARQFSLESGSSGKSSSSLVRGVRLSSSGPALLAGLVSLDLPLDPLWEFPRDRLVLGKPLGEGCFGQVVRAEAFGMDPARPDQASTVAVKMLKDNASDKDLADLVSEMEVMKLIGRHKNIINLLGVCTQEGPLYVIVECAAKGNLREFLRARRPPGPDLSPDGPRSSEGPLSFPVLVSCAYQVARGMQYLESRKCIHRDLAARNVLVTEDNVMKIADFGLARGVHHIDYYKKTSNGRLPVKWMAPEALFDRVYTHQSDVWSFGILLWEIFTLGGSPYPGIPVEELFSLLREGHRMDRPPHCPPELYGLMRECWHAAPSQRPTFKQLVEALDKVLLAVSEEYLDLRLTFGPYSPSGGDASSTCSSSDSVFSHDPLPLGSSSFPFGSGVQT
# Excerpt: as §1
# [5] = target: 320 wild-type protein kinases (Homo sapiens, UniProt Q9P0L2); conditions: singlicate
# Chain of 320 wild-type protein kinases (Homo sapiens, UniProt Q9P0L2) (Q9P0L2 whole entry): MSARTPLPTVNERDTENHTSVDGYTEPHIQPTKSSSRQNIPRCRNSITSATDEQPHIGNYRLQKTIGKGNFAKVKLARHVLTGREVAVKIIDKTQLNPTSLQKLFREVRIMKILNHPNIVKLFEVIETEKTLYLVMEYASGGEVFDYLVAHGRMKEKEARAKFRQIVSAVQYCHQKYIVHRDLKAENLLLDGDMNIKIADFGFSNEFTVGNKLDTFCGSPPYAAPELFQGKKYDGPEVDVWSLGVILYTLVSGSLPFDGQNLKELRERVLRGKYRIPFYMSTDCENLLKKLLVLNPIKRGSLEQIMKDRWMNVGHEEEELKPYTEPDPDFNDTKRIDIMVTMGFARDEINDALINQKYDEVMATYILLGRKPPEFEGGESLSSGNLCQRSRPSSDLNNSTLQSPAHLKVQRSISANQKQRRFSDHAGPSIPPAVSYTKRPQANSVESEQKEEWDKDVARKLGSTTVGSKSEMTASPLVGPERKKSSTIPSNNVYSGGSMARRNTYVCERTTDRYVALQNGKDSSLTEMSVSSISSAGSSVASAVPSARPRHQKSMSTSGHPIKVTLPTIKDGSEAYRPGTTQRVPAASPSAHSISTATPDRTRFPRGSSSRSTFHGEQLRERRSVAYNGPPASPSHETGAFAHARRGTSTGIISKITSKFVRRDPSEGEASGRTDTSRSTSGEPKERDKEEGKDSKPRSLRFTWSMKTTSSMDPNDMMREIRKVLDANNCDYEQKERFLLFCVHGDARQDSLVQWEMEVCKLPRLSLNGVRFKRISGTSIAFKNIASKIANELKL
# Excerpt: as §1
# [6] = target: 320 wild-type protein kinases (Homo sapiens, UniProt P07333); conditions: CSF1-R, singlicate
# Chain of 320 wild-type protein kinases (Homo sapiens, UniProt P07333) (P07333 20-972): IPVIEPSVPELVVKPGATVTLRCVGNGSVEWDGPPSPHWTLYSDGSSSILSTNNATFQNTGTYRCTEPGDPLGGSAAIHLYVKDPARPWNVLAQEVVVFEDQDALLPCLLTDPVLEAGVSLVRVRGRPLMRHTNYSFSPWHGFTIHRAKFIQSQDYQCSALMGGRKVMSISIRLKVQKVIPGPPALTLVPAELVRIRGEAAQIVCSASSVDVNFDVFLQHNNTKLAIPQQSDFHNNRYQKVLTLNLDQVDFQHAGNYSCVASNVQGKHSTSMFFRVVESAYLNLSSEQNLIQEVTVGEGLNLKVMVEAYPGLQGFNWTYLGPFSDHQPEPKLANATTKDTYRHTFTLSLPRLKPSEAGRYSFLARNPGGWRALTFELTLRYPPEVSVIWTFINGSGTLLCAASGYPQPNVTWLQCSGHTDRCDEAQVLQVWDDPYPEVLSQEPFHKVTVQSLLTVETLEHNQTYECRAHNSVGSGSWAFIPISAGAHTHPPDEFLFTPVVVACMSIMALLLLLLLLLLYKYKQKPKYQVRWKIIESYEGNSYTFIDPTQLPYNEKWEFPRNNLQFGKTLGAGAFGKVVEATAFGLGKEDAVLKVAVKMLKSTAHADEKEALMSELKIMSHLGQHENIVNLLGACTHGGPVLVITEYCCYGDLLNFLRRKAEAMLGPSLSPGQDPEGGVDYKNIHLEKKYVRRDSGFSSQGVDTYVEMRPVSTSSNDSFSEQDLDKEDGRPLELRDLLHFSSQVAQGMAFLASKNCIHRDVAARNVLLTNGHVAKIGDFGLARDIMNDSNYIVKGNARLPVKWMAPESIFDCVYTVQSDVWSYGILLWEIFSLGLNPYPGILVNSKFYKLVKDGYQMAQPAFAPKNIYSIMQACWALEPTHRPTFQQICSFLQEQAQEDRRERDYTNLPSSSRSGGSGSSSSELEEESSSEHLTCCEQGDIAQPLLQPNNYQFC
# Excerpt: as §1
# [7] = target: 320 wild-type protein kinases (Homo sapiens, UniProt P08581); conditions: MET, singlicate
# Chain of 320 wild-type protein kinases (Homo sapiens, UniProt P08581) (P08581 25-1390): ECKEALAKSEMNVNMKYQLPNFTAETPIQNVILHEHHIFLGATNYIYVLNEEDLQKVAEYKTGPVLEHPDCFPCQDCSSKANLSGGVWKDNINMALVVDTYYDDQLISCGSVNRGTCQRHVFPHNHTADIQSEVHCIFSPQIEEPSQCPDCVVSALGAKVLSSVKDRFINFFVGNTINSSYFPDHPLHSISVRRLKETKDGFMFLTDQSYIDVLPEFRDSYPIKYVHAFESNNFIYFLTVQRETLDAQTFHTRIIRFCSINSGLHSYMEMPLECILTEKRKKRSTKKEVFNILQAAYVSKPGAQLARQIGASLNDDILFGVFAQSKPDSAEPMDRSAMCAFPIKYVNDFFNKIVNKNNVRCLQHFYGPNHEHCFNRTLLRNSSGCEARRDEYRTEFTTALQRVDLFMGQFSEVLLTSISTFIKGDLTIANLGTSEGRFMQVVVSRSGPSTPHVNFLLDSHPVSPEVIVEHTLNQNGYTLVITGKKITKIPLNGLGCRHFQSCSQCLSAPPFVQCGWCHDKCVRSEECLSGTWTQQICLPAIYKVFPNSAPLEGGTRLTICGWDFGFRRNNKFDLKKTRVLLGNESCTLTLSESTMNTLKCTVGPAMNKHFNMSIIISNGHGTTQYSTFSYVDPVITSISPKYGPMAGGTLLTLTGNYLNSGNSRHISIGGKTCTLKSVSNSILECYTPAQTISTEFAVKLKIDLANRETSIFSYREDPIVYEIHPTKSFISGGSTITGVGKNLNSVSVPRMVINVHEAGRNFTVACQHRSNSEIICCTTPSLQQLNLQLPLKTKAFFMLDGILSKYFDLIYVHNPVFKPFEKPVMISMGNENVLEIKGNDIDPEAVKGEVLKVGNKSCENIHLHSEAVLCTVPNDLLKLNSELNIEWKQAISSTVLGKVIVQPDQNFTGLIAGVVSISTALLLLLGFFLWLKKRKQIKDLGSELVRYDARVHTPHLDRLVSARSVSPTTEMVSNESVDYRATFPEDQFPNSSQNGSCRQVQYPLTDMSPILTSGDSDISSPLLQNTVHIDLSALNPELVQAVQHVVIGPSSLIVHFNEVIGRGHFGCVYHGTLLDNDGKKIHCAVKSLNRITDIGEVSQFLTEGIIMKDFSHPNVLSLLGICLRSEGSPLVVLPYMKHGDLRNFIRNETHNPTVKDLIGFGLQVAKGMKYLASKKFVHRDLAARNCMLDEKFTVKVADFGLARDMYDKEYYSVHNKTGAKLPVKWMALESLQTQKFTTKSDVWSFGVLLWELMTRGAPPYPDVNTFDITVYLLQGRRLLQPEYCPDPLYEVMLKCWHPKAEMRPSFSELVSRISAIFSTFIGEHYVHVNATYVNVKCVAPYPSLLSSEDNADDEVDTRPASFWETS
# Excerpt: as §1
# [8] = target: T2, 320 wild-type protein kinases (Homo sapiens, UniProt Q12851); conditions: singlicate
# T2 sequence (Q12851 1-820): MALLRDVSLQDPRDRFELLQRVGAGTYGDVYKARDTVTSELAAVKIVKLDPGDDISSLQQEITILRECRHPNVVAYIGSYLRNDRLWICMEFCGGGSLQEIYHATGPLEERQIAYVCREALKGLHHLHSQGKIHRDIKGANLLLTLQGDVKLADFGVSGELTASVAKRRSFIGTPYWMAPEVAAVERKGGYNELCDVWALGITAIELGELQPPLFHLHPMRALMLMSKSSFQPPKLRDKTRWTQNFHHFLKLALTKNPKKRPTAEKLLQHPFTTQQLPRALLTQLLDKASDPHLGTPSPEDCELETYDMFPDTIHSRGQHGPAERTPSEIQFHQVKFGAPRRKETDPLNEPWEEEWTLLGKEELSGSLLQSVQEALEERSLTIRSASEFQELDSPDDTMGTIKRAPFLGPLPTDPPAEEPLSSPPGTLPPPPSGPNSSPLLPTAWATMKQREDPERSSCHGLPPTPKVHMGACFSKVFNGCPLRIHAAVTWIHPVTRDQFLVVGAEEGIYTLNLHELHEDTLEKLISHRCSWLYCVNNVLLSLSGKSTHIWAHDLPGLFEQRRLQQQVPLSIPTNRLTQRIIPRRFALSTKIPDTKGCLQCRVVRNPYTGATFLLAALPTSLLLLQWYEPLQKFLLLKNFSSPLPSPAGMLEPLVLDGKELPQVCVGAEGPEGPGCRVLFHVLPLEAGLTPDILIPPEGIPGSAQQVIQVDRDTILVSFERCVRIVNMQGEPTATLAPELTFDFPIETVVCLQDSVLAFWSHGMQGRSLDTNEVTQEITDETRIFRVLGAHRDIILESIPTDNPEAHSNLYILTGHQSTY
# Excerpt: as §1
# Chain of 320 wild-type protein kinases (Homo sapiens, UniProt Q00534) (Q00534 whole entry): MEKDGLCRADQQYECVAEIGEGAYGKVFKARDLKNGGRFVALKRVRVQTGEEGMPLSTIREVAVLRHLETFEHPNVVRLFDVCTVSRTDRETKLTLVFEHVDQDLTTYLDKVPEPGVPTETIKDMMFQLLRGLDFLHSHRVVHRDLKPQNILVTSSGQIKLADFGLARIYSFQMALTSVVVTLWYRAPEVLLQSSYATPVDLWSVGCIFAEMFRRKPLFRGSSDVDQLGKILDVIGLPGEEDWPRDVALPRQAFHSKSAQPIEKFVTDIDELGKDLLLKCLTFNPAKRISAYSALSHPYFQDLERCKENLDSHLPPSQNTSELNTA
SMILES,"Residual activity ([1]; CDK6/CycD1, 1.0E-06 M)","Residual activity ([1]; CDK6/CycD1, 1.0E-07 M)","Residual activity ([1]; CDK6/CycD3, 1.0E-06 M)","Residual activity ([1]; CDK6/CycD3, 1.0E-07 M)",Residual activity ([2]; 1.0E-06 M),Residual activity ([2]; 1.0E-07 M),Residual activity ([3]; 1.0E-06 M),Residual activity ([3]; 1.0E-07 M),"Residual activity ([4]; FGF-R4, 1.0E-06 M)","Residual activity ([4]; FGF-R4, 1.0E-07 M)","Residual activity ([5]; MARK1, 1.0E-06 M)","Residual activity ([5]; MARK1, 1.0E-07 M)",Residual activity ([6]; 1.0E-06 M),Residual activity ([6]; 1.0E-07 M),Residual activity ([7]; 1.0E-06 M),Residual activity ([7]; 1.0E-07 M),"Residual activity ([8]; MAP4K2, 1.0E-06 M)","Residual activity ([8]; MAP4K2, 1.0E-07 M)"
C#Cc1cc(Nc2ncnc3cc(I)ccc23)ccc1Cl [Compound 41],98 % of control,92 % of control,103 % of control,102 % of control,75 % of control,84 % of control,97 % of control,116 % of control,88 % of control,96 % of control,85 % of control,94 % of control,123 % of control,130 % of control,89 % of control,93 % of control,94 % of control,99 % of control
C#Cc1cc(Nc2ncnc3cc(OC)c(OC)cc23)ccc1Cl [Compound 45],86 % of control,96 % of control,105 % of control,95 % of control,91 % of control,85 % of control,80 % of control,103 % of control,96 % of control,100 % of control,93 % of control,93 % of control,108 % of control,127 % of control,70 % of control,99 % of control,113 % of control,105 % of control
